Assay results taken from the supplement of paper PMC13380429.

What was measured:
Settings in all cases: 72 h
Caco-2 [1] = test: cell viability relative to DMSO; higher = less toxic
Calu-3 [2] = test: as above
HepG2 [3] = test: as above
U2OS [4] = test: as above
Vero E6 [5] = test: as above
Caco-2 [6] = test: relative viability EC50 (midpoint between 100% and the lowest measured viability); higher = less toxic
Calu-3 [7] = test: as above
HepG2 [8] = test: as above
U2OS [9] = test: as above
Vero E6 [10] = test: as above
Caco-2 [11] = test: drug sensitivity score (DSS) for viability; higher = more toxic; extreme values may be limits of the assay
Calu-3 [12] = test: as above
HepG2 [13] = test: as above
U2OS [14] = test: as above
Vero E6 [15] = test: as above

Compound | cell viability (Caco-2 [1]; 1 nM) [%] | cell viability (Caco-2 [1]; 10 nM) [%] | cell viability (Caco-2 [1]; 100 nM) [%] | cell viability (Caco-2 [1]; 1000 nM) [%] | cell viability (Caco-2 [1]; 10000 nM) [%] | cell viability (Calu-3 [2]; 1 nM) [%] | cell viability (Calu-3 [2]; 10 nM) [%] | cell viability (Calu-3 [2]; 100 nM) [%] | cell viability (Calu-3 [2]; 1000 nM) [%] | cell viability (Calu-3 [2]; 10000 nM) [%] | cell viability (HepG2 [3]; 1 nM) [%] | cell viability (HepG2 [3]; 10 nM) [%] | cell viability (HepG2 [3]; 100 nM) [%] | cell viability (HepG2 [3]; 1000 nM) [%] | cell viability (HepG2 [3]; 10000 nM) [%] | cell viability (U2OS [4]; 1 nM) [%] | cell viability (U2OS [4]; 10 nM) [%] | cell viability (U2OS [4]; 100 nM) [%] | cell viability (U2OS [4]; 1000 nM) [%] | cell viability (U2OS [4]; 10000 nM) [%] | cell viability (Vero E6 [5]; 1 nM) [%] | cell viability (Vero E6 [5]; 10 nM) [%] | cell viability (Vero E6 [5]; 100 nM) [%] | cell viability (Vero E6 [5]; 1000 nM) [%] | cell viability (Vero E6 [5]; 10000 nM) [%] | relative viability EC50 (Caco-2 [6]) [µM] | relative viability EC50 (Calu-3 [7]) [µM] | relative viability EC50 (HepG2 [8]) [µM] | relative viability EC50 (U2OS [9]) [µM] | relative viability EC50 (Vero E6 [10]) [µM] | drug sensitivity score (Caco-2 [11]) | drug sensitivity score (Calu-3 [12]) | drug sensitivity score (HepG2 [13]) | drug sensitivity score (U2OS [14]) | drug sensitivity score (Vero E6 [15])
CN1C(=O)COc2c(C(=O)NC3CN4CCC3CC4)cc(Cl)cc21 (stereo not given) [azasetron] | 98.4 | 94.9 | 96.6 | 98.7 | 98.5 | 91.4 | 93.1 | 103 | 110 | 111 | 91.6 | 99 | 87.9 | 94.5 | 96.2 | 101 | 91.4 | 95.6 | 99 | 99.2 | 102 | 94.4 | 91.8 | 86.2 | 105 | > 10 | > 10 | > 10 | > 10 | > 10 | 0 | 0 | 0 | 0 | 0
O=Cc1cn(Cc2ccc(Cl)cc2)c2ccccc12 [oncrasin-1] | 92.2 | 90.8 | 97.2 | 101 | 98.6 | 94.8 | 100 | 96.2 | 99.8 | 106 | 101 | 110 | 104 | 40.3 | 1.2 | 97.2 | 96.8 | 102 | 100 | 101 | 90.4 | 102 | 94.1 | 95.9 | 103 | > 10 | > 10 | 0.847 | > 10 | > 10 | 0 | 0 | 12.5 | 0 | 0
Cc1[nH]cnc1CN1CCc2c(c3ccccc3n2C)C1=O [alosetron] | 101 | 98.7 | 95.6 | 104 | 109 | 102 | 93.5 | 102 | 91.7 | 106 | 111 | 93.7 | 83.9 | 89.1 | 94.4 | 98.2 | 95.6 | 104 | 96.9 | 99.5 | 99.3 | 94.5 | 93.1 | 96.5 | 97 | > 10 | > 10 | > 10 | > 10 | > 10 | 0 | 0 | 3.7 | 0 | 0
CN1Cc2c(N)cccc2C(c2ccccc2)C1 (stereo not given) [nomifensine] | 97.1 | 95 | 98 | 94.6 | 103 | 104 | 98.2 | 100 | 106 | 96.8 | 106 | 110 | 93.5 | 103 | 97.3 | 101 | 100 | 102 | 101 | 96.3 | 97.9 | 96.8 | 94.2 | 99.4 | 110 | > 10 | > 10 | > 10 | > 10 | > 10 | 0 | 0 | 0 | 0 | 0
O=C(NC(Cc1cc(=O)[nH]c2ccccc12)C(=O)O)c1ccc(Cl)cc1 (stereo not given) [rebamipide] | 92.6 | 97.7 | 89.9 | 100 | 99.3 | 99.2 | 97.5 | 92.7 | 99.7 | 106 | 107 | 89.4 | 108 | 105 | 104 | 90.5 | 96.7 | 93.9 | 103 | 110 | 101 | 96 | 97.6 | 96.8 | 110 | > 10 | > 10 | > 10 | > 10 | > 10 | 0 | 0 | 0 | 0 | 0
N#C/C(=C\c1ccc(O)c(O)c1)C(=O)OCCc1cccs1 [2-TEDC] | 96.3 | 102 | 91.8 | 101 | 99.3 | 91.1 | 94.2 | 96.1 | 99.4 | 93.9 | 93.8 | 96.1 | 104 | 86 | 91.3 | 98.6 | 101 | 96.1 | 99.2 | 95.2 | 98.5 | 97.9 | 96.7 | 93.6 | 102 | > 10 | > 10 | > 10 | > 10 | > 10 | 0 | 0 | 1 | 0 | 0
CC(C)c1cc(-c2n[nH]c(=O)n2-c2ccc3c(ccn3C)c2)c(O)cc1O [ganetespib] | 99.9 | 95.4 | 37.4 | 35.2 | 29.3 | 91.5 | 95.9 | 47.8 | 35.7 | 32.5 | 97.7 | 56.6 | 2.3 | 1.2 | 1.1 | 98.4 | 96.7 | 3.7 | 3.4 | 1.5 | 101 | 107 | 46.3 | 25.9 | 29.1 | 0.0369 | 0.0478 | 0.0114 | 0.0307 | 0.0685 | 21.3 | 19.1 | 35.3 | 30.2 | 19.9
O=C(O)CCCc1ccccc1 [phenylbutyrate] | 79.8 | 100 | 90.4 | 97 | 107 | 94.6 | 112 | 113 | 109 | 105 | 111 | 81.8 | 105 | 104 | 96.1 | 99.9 | 105 | 104 | 103 | 103 | 106 | 95.6 | 104 | 93.2 | 106 | > 10 | > 10 | > 10 | > 10 | > 10 | 0 | 0 | 0 | 0 | 0
COc1cc(Oc2ccnc3cc(OC)c(OC)cc23)ccc1NC(=O)NC(C)c1nccs1 (stereo not given) | 100 | 104 | 87.7 | 97.2 | 88.2 | 94.5 | 98.7 | 91.6 | 113 | 97.3 | 93.1 | 104 | 91.7 | 98.8 | 87.9 | 95.1 | 98.8 | 93.8 | 95.6 | 90.1 | 100 | 101 | 91 | 96.2 | 95.6 | > 10 | > 10 | > 10 | > 10 | > 10 | 0 | 0 | 0 | 0 | 0
CN(C)CC/C=C1/c2ccccc2Sc2ccc(Cl)cc21 [chlorprothixene] | 122 | 99.5 | 96.2 | 90.5 | 100 | 103 | 101 | 106 | 106 | 84.8 | 99.6 | 103 | 103 | 98.4 | 82.9 | 104 | 101 | 102 | 99.7 | 100 | 103 | 110 | 103 | 106 | 89.2 | > 10 | > 10 | > 10 | > 10 | > 10 | 0 | 0.1 | 0.6 | 0 | 0
O=C(Nc1ccccc1)OCC(CN1CCCCC1)OC(=O)Nc1ccccc1 (stereo not given) [diperodon] | 87.6 | 89.7 | 87.6 | 83 | 95.5 | 112 | 122 | 93.3 | 104 | 98.8 | 100 | 97.8 | 96.1 | 110 | 103 | 95.5 | 93.6 | 94.5 | 91.8 | 94.4 | 90.9 | 95.5 | 87 | 96.6 | 100 | > 10 | > 10 | > 10 | > 10 | > 10 | 0 | 0 | 0 | 0 | 0
COc1cccc2c1C(=O)c1c(O)c3c(c(O)c1C2=O)C[C@@](O)(C(=O)CO)C[C@@H]3O[C@H]1C[C@H](N)[C@H](O[C@@H]2CCCCO2)[C@H](C)O1 [pirarubicin] | 96.9 | 92.4 | 89.7 | 68.4 | 20.7 | 103 | 92.7 | 86.7 | 59.1 | 27.4 | 104 | 101 | 87.4 | 38.3 | 0.8 | 98.9 | 99.5 | 99.4 | 84.6 | 1.1 | 102 | 98.1 | 96.7 | 73.5 | 40.6 | 1.25 | 0.622 | 0.619 | 1.95 | 1.12 | 7.9 | 9.6 | 13.5 | 8 | 6.3
CC[C@H](C)[C@H](N)C(=O)O [isoleucine] | 88.4 | 100 | 99.3 | 94.5 | 108 | 101 | 89.1 | 91.1 | 99.9 | 103 | 99.5 | 95.6 | 104 | 90.8 | 97.4 | 101 | 96.8 | 96.3 | 107 | 106 | 92.1 | 97.3 | 96.4 | 95.4 | 106 | > 10 | > 10 | > 10 | > 10 | > 10 | 0 | 0 | 0 | 0 | 0
N#Cc1cnc2cnc(NCc3cccnc3)cc2c1Nc1ccc(F)c(Cl)c1 [TC-S-7006] | 93.3 | 99 | 91.1 | 88.3 | 75.6 | 96.6 | 96.8 | 96.9 | 91.8 | 89 | 102 | 93 | 107 | 91.2 | 50 | 96.3 | 106 | 96.1 | 96.8 | 85.2 | 97.2 | 94.1 | 94 | 85.8 | 95.4 | > 10 | > 10 | 1.85 | > 10 | > 10 | 1.9 | 0 | 4.1 | 0.4 | 0
